Test results as given in patent US11857535B2, “Methods of treating mutant lymphomas” (Kymera Therapeutics, Inc., priority 2020, dated 2024).

Biological target: T1, IRAK4 (Homo sapiens, UniProt Q9NWZ3)
T1 construct: endogenous in cells; host or cells: OCI-Ly10
T1 sequence (Q9NWZ3 1-460): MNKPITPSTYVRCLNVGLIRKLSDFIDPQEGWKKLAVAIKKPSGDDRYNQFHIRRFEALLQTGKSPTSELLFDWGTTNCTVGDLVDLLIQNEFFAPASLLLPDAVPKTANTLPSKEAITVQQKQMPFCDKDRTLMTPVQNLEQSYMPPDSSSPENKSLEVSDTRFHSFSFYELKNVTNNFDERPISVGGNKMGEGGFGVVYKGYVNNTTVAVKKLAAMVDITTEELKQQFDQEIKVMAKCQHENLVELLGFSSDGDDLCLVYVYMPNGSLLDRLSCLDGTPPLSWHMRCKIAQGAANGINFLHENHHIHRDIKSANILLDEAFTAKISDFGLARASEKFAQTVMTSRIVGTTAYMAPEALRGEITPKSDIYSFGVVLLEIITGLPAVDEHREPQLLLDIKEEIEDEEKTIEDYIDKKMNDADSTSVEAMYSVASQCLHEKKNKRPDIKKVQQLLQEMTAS
Experiment: IRAK4 MSD degradation in OCI-Ly10
Type: cell-based
Conditions: FIG. 1
Method: Degradation of IRAK4 in OCI-Ly10 was quantitatively measured using Meso Scale Discovery technology. OCI-Ly10 cells were seeded in 96-well plates (Corning 3799) with a density of 300,000 cells per well in 100 μL fresh media. Compounds were then added to the assay plates with a final top concentration of 1 to 10 μM in a 1:3 dilution series with total of 8 doses. The assay plates were then incubated for 4 to 24 hours at 37° C. under 5% CO2. The assay plates were then centrifuged for 5 minutes and the cell pellets were treated with 100 μL/well RIPA lysis buffer (Boston BioProducts BP-115D) with proteinase inhibitors. To prepare MSD assay plates (Meso Scale Discovery Catalog number L15XA-3), the plates were coated with 2 μg/mL capture antibody (mouse Anti-IRAK4 antibody [2H9], ab119942) in PBS, at 40 μL/well. The plates were then incubated overnight at 4° C., washed 3 times with 150 μL/well TBST buffer (Cell Signaling Technology, Catalog number 9997S) and blocked with 150 μL/well blocking buffer (Meso Scale Discovery Catalog number R93BA-4). Cell lysates were then added to MSD assay plates and the plates were incubated at room temperature for 1 hour. The plates were then washed 3 times with 150 μL/well TBST buffer and […] primary detection antibody (rabbit Anti-IRAK4 antibody [Y279], from Abcam. Catalog number ab32511, 1 μg/mL). The assay plates were then incubated at room temperature for 1 hour, washed 3 times with 150 μL/well TBST buffer and 25 μL/well secondary detection antibody, SULFO-TAG anti-rabbit antibody were added (anti rabbit antibody from Meso Scale Discovery, Catalog number R32AB-1, 1 μg/mL). The assay plates were then incubated at room temperature for 1 hour, washed 3 times with 150 μL/well TBST buffer, and 150 μL/well MSD reading buffer (Meso Scale Discovery catalog number R92TC-2) was added. The plates were then analyzed by a MSD reader (Meso Scale Discovery, Model Quick Plex SQ 120). The data was then analyzed by software Prism 7.0 from GraphPad and the dose-depended IRAK4 degradation were fit using a three-parameter logistic equation to calculate DC50.

CC(C)(O)c1cc2nc([C@H]3CC[C@H](CN4CC5(CC(CCNc6cccc7c6C(=O)N(C6CCC(=O)NC6=O)C7=O)C5)C4)CC3)sc2cc1NC(=O)c1cccc(C(F)(F)F)n1 (stereo partly shown) [Compound A, N-(2-((1r,4r)-4-((6-(2-((2-(2,6-dioxopiperidin-3-yl)-1,3-dioxoisoindolin-4-yl)amino)ethyl)-2-azaspiro[3.3]heptan-2-yl)methyl)cyclohexyl)-5-(2-hydroxypropan-2-yl)benzo[d]thiazol-6-yl)-6-(trifluoromethyl)picolinamide]
IRAK4 degradation associated with CTG IC90: approximately 70%
